Assay results published in the NIST ThermoML archive (doi:10.1021/je100610v).

Assay: molar heat capacity at constant pressure; xn = mol fraction of the nth substance listed
Conditions: 101 kPa, Liquid

ClCCCCCCCl [1,6-dichlorohexane] + CCCCCCC
molar heat capacity at constant pressure [J/K/mol]
Conditions | x1 = 0.1033 | x1 = 0.2005 | x1 = 0.3004 | x1 = 0.397 | x1 = 0.5025 | x1 = 0.5978 | x1 = 0.7012 | x1 = 0.7975 | x1 = 0.8993 | x1 = 1
303.15 K | – | – | – | – | – | 235.31 | 236.93 | 238.61 | 240.37 | 242.06
304.15 K | 228.19 | 229.46 | 230.7 | 232.56 | 234.04 | 235.48 | 237.2 | 238.86 | 240.64 | 242.34
305.15 K | 228.57 | 229.83 | 230.91 | 232.74 | 234.33 | 235.88 | 237.53 | 239.21 | 240.92 | 242.62
306.15 K | 228.88 | 230.1 | 231.36 | 233.13 | 234.4 | 236.03 | 237.84 | 239.44 | 241.2 | 242.83
307.15 K | 229.3 | 230.51 | 231.65 | 233.51 | 235.07 | 236.5 | 238.18 | 239.76 | 241.48 | 243.21
308.15 K | 229.71 | 230.91 | 232.08 | 233.76 | 235.33 | 236.85 | 238.49 | 240.12 | 241.83 | 243.49
309.15 K | 230.05 | 231.19 | 232.35 | 234.03 | 235.45 | 237.17 | 238.74 | 240.37 | 242.06 | 243.73
310.15 K | 230.4 | 231.55 | 232.73 | 234.35 | 235.77 | 237.52 | 239.07 | 240.64 | 242.36 | 244
311.15 K | 230.86 | 231.97 | 233.11 | 234.88 | 236.41 | 237.89 | 239.43 | 241.08 | 242.73 | 244.35
312.15 K | 231.16 | 232.33 | 233.45 | 235.01 | 236.75 | 238.16 | 239.72 | 241.32 | 243.02 | 244.68
313.15 K | 231.55 | 232.68 | 233.79 | 235.43 | 236.93 | 238.39 | 240.06 | 241.64 | 243.28 | 244.91
